In US11591341B2 (ALIGOS THERAPEUTICS, INC., priority 2019, dated 2023) one finds EC50 data, which are given here for 19 compounds.

In the experiment the test system is HBV. The experiment is described as follows: HBV-DNA Antiviral Assay Using HepG2.117 Cells (intracellular HBV DNA by qPCR). As to conditions: Hepatitis B virus, HepG2.117. In kind it is cell-based, hepatitis B virus (genotype D). In outline: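 Endpoint: qPCR copy number of intracellular HBV DNA after 3-day compound exposure, with inhibition set relative to the 2% DMSO control. The cells were doxycycline-free HepG2.117 carrying a Tet-off genotype D genome, dosed at nine 4-fold dilutions. A duplicate plate gave ATP-based viability (CC50).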
Compound `O=C(NCc1ccccc1)c1c2n(c(=O)n1-c1ccc3[nH]ncc3c1)CCN(C(=O)c1ccc(Br)c(Cl)c1)C2` [Example 298, N-benzyl-7-(4-bromo-3-chloro-benzoyl)-2-(1H-indazol-5-yl)-3-oxo-6,8-dihydro-5H-imidazo[1,5-a]pyrazine-1-carboxamide] returned an EC50 of 500 to 5000 nM.

As to `COc1ccc(-n2c(C(=O)N[C@@H](c3ccccc3)C(C)C)c3n(c2=O)CCN(C(=O)c2ccc(Br)c(Cl)c2)C3)cc1` (racemic) [Example 178, 7-(4-bromo-3-chloro-benzoyl)-2-(4-methoxyphenyl)-3-oxo-N-[rac-(1R)-2-methyl-1-phenyl-propyl]-6,8-dihydro-5H-imidazo[1,5-a]pyrazine-1-carboxamide], the 50% effective concentration (EC50) lay within 500 to 5000 nM. The value for `Cc1coc2ccc(-n3c(C(=O)NCc4ccccc4)c4n(c3=O)CCN(C(=O)c3ccc(Br)c(Cl)c3)C4)cc12` [Example 276] was 100 to 500 nM; that for `C[C@@H](NC(=O)c1c2n(c(=O)n1-c1ccc(OC3CC3)cc1)CCN(C(=O)c1ccc(Br)c(Cl)c1)C2)c1ccc(C#N)cc1F` (racemic) [Example 341, 7-(4-bromo-3-chloro-benzoyl)-2-[4-(cyclopropoxy)phenyl]-3-oxo-N-[rac-(1R)-1-(4-cyano-2-fluoro-phenyl)ethyl]-6,8-dihydro-5H-imidazo[1,5-a]pyrazine-1-carboxamide] was 500 to 5000 nM; that for `C[C@H](NC(=O)c1c2n(c(=O)n1-c1ccc(OCC(F)(F)F)cc1)CCN(C(=O)c1ccc(Br)c(Cl)c1)C2)c1ccc(OC(C)(C)C(N)=O)cc1F` (stereo in doubt) [Example 336, 7-(4-bromo-3-chloro-benzoyl)-3-oxo-N-[rac-(1S)-1-[4-(2-amino-1,1-dimethyl-2-oxo-ethoxy)-2-fluoro-phenyl]ethyl]-2-[4-(2,2,2-trifluoroethoxy)phenyl]-6,8-dihydro-5H-imidazo[1,5-a]pyrazine-1-carboxamide] was 100 to 500 nM. The figure for `CC(C)Oc1ccc(-n2c(C(=O)N[C@H](C)c3ccc(C#N)cc3)c3n(c2=O)CCN(C(=O)c2ccc(Br)c(Cl)c2)C3)cc1` (stereo in doubt) [Example 233, 7-(4-bromo-3-chloro-benzoyl)-2-(4-isopropoxyphenyl)-3-oxo-N-[rac-(1R)-1-(4-cyanophenyl)ethyl]-6,8-dihydro-5H-imidazo[1,5-a]pyrazine-1-carboxamide] is 100 to 500 nM. In turn, `C[C@@H](NC(=O)c1c2n(c(=O)n1-c1ccc(OCC(F)(F)F)cc1)CCN(C(=O)c1ccc(Br)c(Cl)c1)C2)c1ccccc1` (stereo in doubt) [Example 128, 7-(4-bromo-3-chloro-benzoyl)-3-oxo-N-[rac-(1R)-1-phenylethyl]-2-[4-(2,2,2-trifluoroethoxy)phenyl]-6,8-dihydro-5H-imidazo[1,5-a]pyrazine-1-carboxamide] gave an EC50 of 100 to 500 nM. The figure for `O=C(NCc1ccccc1)c1c2n(c(=O)n1-c1ccc3[nH]c(C(F)(F)F)cc3c1)CCN(C(=O)c1ccc(Br)c(Cl)c1)C2` [Example 352, N-benzyl-7-(4-bromo-3-chloro-benzoyl)-3-oxo-2-[2-(trifluoromethyl)-1H-indol-5-yl]-6,8-dihydro-5H-imidazo[1,5-a]pyrazine-1-carboxamide] is 500 to 5000 nM; for `COc1ccc(-n2c(C(=O)NC(C)c3ccc(F)cc3)c3n(c2=O)CCN(C(=O)c2ccc(Br)c(Cl)c2)C3)cc1` (stereo not shown) [Example 141, 7-(4-bromo-3-chloro-benzoyl)-N-[1-(4-fluorophenyl)ethyl]-2-(4-methoxyphenyl)-3-oxo-6,8-dihydro-5H-imidazo[1,5-a]pyrazine-1-carboxamide] it is 100 to 500 nM. The value for `COc1ccc(-n2c(C(=O)NCc3cccnc3)c3n(c2=O)CCN(C(=O)c2ccc(Cl)c(Cl)c2)C3)cc1` [Example 64, 7-(3,4-dichlorobenzoyl)-2-(4-methoxyphenyl)-3-oxo-N-(3-pyridylmethyl)-6,8-dihydro-5H-imidazo[1,5-a]pyrazine-1-carboxamide] was above 5000 nM; that for `COc1ccc(CNC(=O)c2c3n(c(=O)n2-c2ccc(OCC(F)(F)F)cc2)CCN(C(=O)c2ccc(Br)c(Cl)c2)C3)c(OC(F)F)c1` [Example 266] was 100 to 500 nM. The value for `C[C@@H](NC(=O)c1c2n(c(=O)n1-c1ccc(OC3CC3)cc1)CCN(C(=O)c1ccc(Br)c(Cl)c1)C2)c1cccc2nccnc12` (racemic) [Example 383, 7-(4-bromo-3-chloro-benzoyl)-2-[4-(cyclopropoxy)phenyl]-3-oxo-N-[rac-(1R)-1-quinoxalin-5-ylethyl]-6,8-dihydro-5H-imidazo[1,5-a]pyrazine-1-carboxamide] was 100 to 500 nM; that for `COc1ccc(-n2c(C(=O)NCc3ccc(OC)c(C)c3)c3n(c2=O)CCN(C(=O)c2ccc(Cl)c(Cl)c2)C3)cc1` [Example 89, 7-(3,4-dichlorobenzoyl)-N-[(4-methoxy-3-methyl-phenyl)methyl]-2-(4-methoxyphenyl)-3-oxo-6,8-dihydro-5H-imidazo[1,5-a]pyrazine-1-carboxamide] was 500 to 5000 nM. The compound `CO[C@@H]1CN(Cc2ccccc2)Cc2c3n(c(=O)n2C1)CCN(C(=O)c1ccc(Br)c(Cl)c1)C3` (stereo in doubt) [Example 309, rac-(11R)-13-benzyl-4-(4-bromo-3-choro-benzoyl)-11-methoxy-4,7,9,13-tetrazatricyclo[7.5.0.0^2,7]tetradec-1-ene-8,14-dione] returned an EC50 of 500 to 5000 nM. `O=C(NCc1cccc2cccnc12)c1c2n(c(=O)n1-c1ccc(OCC(F)(F)F)cc1)CCN(C(=O)c1ccc(Br)c(Cl)c1)C2` [Example 230, 7-(4-bromo-3-chloro-benzoyl)-3-oxo-N-(8-quinolylmethyl)-2-[4-(2,2,2-triflurooethoxy)phenyl]-6,8-dihydro-5H-imidazo[1,5-a]pyrazine-1-carboxamide] showed an EC50 of 100 to 500 nM. The figure for `COC1CCC(n2c(C(=O)N[C@H](C)c3ccccc3)c3n(c2=O)CCN(C(=O)c2ccc(Br)c(Cl)c2)C3)CC1` (mixture of isomers) [Example 254, 7-(4-bromo-3-chloro-benzoyl)-2-(4-methoxycyclohexyl)-3-oxo-N-[rac-(1R)-1-phenylethyl]-6,8-dihydro-5H-imidazo[1,5-a]pyrazine-1-carboxamide] is above 5000 nM; for `O=C(NCc1ccc(OC(F)F)cc1F)c1c2n(c(=O)n1-c1ccc(OCC(F)(F)F)cc1)CCN(C(=O)c1ccc(Br)c(Cl)c1)C2` [Example 286, 7-(4-bromo-3-chloro-benzoyl)-N-[[4-(difluoromethoxy)-2-fluoro-phenyl]methyl]-3-oxo-2-[4-(2,2,2-trifluoroethoxy)phenyl]-6,8-dihydro-5H-imidazo[1,5-a]pyrazine-1-carboxamide] it is 500 to 5000 nM; for `CC(C)Oc1ccc(-n2c(C(=O)NCc3ccc(CO)cc3)c3n(c2=O)CCN(C(=O)c2ccc(Br)c(Cl)c2)C3)cc1` [Example 221, 7-(4-bromo-3-chloro-benzoyl)-N-[[4-(hydroxymethyl)phenyl]methyl]-2-(4-isopropoxyphenyl)-3-oxo-6,8-dihydro-5H-imidazo[1,5-a]pyrazine-1-carboxamide] it is above 5000 nM. The figure for `CC(C)Oc1ccc(-n2c(C(=O)N[C@@H](C)c3ccccc3)c3n(c2=O)CCN(C(=O)c2ccc(Br)c(Cl)c2)C3)cc1` (racemic) [Example 119, 7-(4-bromo-3-chloro-benzoyl)-2-(4-isopropoxyphenyl)-3-oxo-N-[rac-(1S)-1-phenylethyl]-6,8-dihydro-5H-imidazo[1,5-a]pyrazine-1-carboxamide] is 100 to 500 nM.
